# Experimental data from patent publication US9242966B2, “Phthalazines as potassium ion channel inhibitors” (BRISTOL-MYERS SQUIBB COMPANY, priority 2013, dated 2016).
# Target: T1, human KV 1.5 (Homo sapiens, UniProt P22460)
# T1 construct: expressed in transfected cells; host or cells: mammalian L-929 cells (mouse fibroblast line)
# Test: Block of IKur current in patch clamped L-929 cells expressing human Kv1.5
# Assay type: cell-based
# Conditions: patch clamped mammalian L-929 cells stably expressing human Kv1.5 (IKur); for inhibition at 0.3 µM: L929, 0.3 μM, read-out: KV1_5% Inh L929 @0.3 μM
# Excerpt: 1. Synders, D. J.; et al., “A rapidly activating and slowly inactivating potassium channel cloned from human heart: functional analysis after stable mammalian cell culture expression”, J. Gen. Physiol., 101:513-543 (1993). […]
# T1 sequence (P22460 whole entry): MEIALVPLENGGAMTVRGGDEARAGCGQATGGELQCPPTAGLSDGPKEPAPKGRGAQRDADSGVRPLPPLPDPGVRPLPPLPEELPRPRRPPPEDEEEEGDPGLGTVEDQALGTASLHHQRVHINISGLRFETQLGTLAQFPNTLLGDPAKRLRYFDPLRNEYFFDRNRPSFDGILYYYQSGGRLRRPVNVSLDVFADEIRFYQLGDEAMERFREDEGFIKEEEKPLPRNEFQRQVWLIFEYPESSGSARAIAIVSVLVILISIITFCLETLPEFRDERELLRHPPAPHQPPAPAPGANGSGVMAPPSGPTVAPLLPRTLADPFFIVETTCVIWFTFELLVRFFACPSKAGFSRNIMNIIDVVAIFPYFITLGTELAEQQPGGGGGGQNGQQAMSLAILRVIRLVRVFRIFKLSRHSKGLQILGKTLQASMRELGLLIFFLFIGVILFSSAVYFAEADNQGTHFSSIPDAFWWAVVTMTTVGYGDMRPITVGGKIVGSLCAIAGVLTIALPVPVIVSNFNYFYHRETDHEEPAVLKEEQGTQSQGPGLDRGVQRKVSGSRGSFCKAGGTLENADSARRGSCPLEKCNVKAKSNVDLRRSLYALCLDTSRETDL
SMILES,inhibition at 0.3 µM [%],KV1_5% Inh L929 @0.3 μM (0.3 μM) [%]
"CC(=O)Nc1cncc(-c2nnc(NCc3ccccc3)c3c(-c4ccccc4)cccc23)c1 [Example 2, N-(5-(4-(Benzylamino)-5-phenylphthalazin-1-yl)pyridin-3-yl)acetamide]",83.9,
"CS(=O)(=O)Nc1cccc(NC(=O)c2cncc(-c3nnc(NCc4ccccn4)c4c(-c5ccccc5)cccc34)c2)c1 [Example 14, N-(3-(Methylsulfonamido)phenyl)-5-(5-phenyl-4-(pyridin-2-ylmethylamino)phthalazin-1-yl)nicotinamide]",71,
"CC(C)CC(=O)Nc1cncc(-c2nnc(NCc3ccccc3)c3c(-c4ccccc4)cccc23)c1 [Example 22, N-(5-(4-(Benzyl-amino)-5-phenylphthalazin-1-yl)pyridin-3-yl)-3-methylbutanamide]",91.5,
"CCOC(=O)c1cncc(-c2nnc(NCc3ccccc3)c3c(-c4ccccc4)cccc23)c1 [Example 24, Ethyl 5-(4-(benzyl-amino)-5-phenylphthalazin-1-yl) nicotinate]",96.5,
"COc1ncc(-c2nnc(NCc3ccccc3)c3c(-c4ccccc4)cccc23)cn1 [Example 26, N-Benzyl-4-(2-methoxy-pyrimidin-5-yl)-8-phenylphthalazin-1-amine]",93.1,
"CC(C)OC(=O)Nc1cncc(-c2nnc(NCc3ccccn3)c3c(-c4ccccc4)cccc23)c1 [Example 12, Isopropyl 5-(5-phenyl-4-(pyridin-2-ylmethylamino)phthalazin-1-yl)pyridin-3-ylcarbamate]",91.6,
O=C(N[C@H]1CCC[C@@H]1OCc1ccccc1)c1cncc(-c2nnc(NCc3ccccn3)c3c(-c4ccccc4)cccc23)c1 [Example 49],93.9,
"O=C(Nc1cncc(-c2nnc(NCc3ccccc3)c3c(-c4ccccc4)cccc23)c1)OCC(F)(F)F [Example 27, 2,2,2-Trifluoroethyl (5-(4-(benzylamino)-5-phenylphthalazin-1-yl)pyridin-3-yl)carbamate]",78,
CC(C)OC(=O)Nc1cncc(-c2nnc(NCc3ccccc3)c3c(-c4ccccc4)cccc23)c1 [Example 4],95.4,
"Cc1cnc(CNC(=O)c2cncc(-c3nnc(NCc4ccccn4)c4c(-c5ccccc5)cccc34)c2)cn1 [Example 45, N-((5-Methylpyrazin-2-yl)methyl)-5-(5-phenyl-4-((pyridin-2-ylmelhyl)amino)phthalazin-1-yl) nicotinamide]",75.6,
"O=C(NCc1ccc(OC(F)(F)F)cc1)c1cncc(-c2nnc(NCc3ccccn3)c3c(-c4ccccc4)cccc23)c1 [Example 44, 5-(5-Phenyl-4-((pyridin-2-ylmethyl)amino)phthalazin-1 yl)-N-(4-(trifluoromethoxy)benzyl)nicotinamide]",96.5,
"O=C(NCCc1ccccc1F)c1cncc(-c2nnc(NCc3ccccn3)c3c(-c4ccccc4)cccc23)c1 [Example 50, N-(2-Fluorophenethyl)-5-(5-phenyl-4-((pyridin-2-ylmethyl)amino)phthalazin-1-yl)nicotinamide]",98.6,
"CC(C)CC(=O)Nc1cncc(-c2nnc(NCc3ccccn3)c3c(-c4ccccc4)cccc23)c1 [Example 30, 3-Methyl-N-(5-(5-phenyl-4-((pyridin-2-ylmethyl)amino)phthalazin-1-yl)pyridin-3-yl)butanamide]",92.5,
"CC(=O)Nc1ccc(-c2nnc(NCc3ccccc3)c3c(-c4ccccc4)cccc23)cn1 [Example 21, N-(5-(4-(Benzyl-amino)-5-phenylphthalazin-1-yl)pyridin-2-yl)acetamide]",97.9,
"COCCNC(=O)c1cncc(-c2nnc(NCc3ccccn3)c3c(-c4ccccc4)cccc23)c1 [Example 46, N-(2-Methoxyethyl)-5-(5-phenyl-4-((pyridin-2-ylmethyl)amino)phthalazin-1-yl)nicotinamide]",51.1,
"CC(C)(C)CCNC(=O)c1cncc(-c2nnc(NCc3ccccn3)c3c(-c4ccccc4)cccc23)c1 [Example 47, N-(3,3-Dimcthylbutyl)-5-(5-phenyl-4-((pyridin-2-ylmethyl)amino)phthalazin-1-yl)nicotinamide]",96.4,

# Further lines, results first:
inhibition at 0.3 µM [%],KV1_5% Inh L929 @0.3 μM (0.3 μM) [%],SMILES
68.1,,"NS(=O)(=O)c1cncc(-c2nnc(NCc3ncccn3)c3c(-c4ccccc4)cccc23)c1 [Example 29, 5-(5-Phenyl-4-((pyrimidin-2-ylmethyl)amino)phthalazin-1-yl)pyridine-3-sulfonamide]"
78.6,,"NS(=O)(=O)c1cncc(-c2nnc(NCc3ncccc3F)c3c(-c4ccccc4)cccc23)c1 [Example 37, 5-(4-((3-Fluoropyridin-2-yl)methylamino)-5-phenylphthalazin-1-yl)pyridine-3-sulfonamide]"
91.2,,"C[C@@H](Nc1nnc(-c2cncc(S(N)(=O)=O)c2)c2cccc(-c3ccccc3)c12)c1ccccc1 [Example 42, (R)-5-(5-Phenyl-4-((1-phenylethyl)amino)phthalazin-1-yl)pyridine-3-sulfonamide]"
90.5,,"NS(=O)(=O)c1cncc(-c2nnc(NCc3ccccc3)c3c(-c4ccccc4)cccc23)c1 [Example 8, 5-(4-(Benzylamino)-5-phenylphthalazin-1-yl)pyridine-3-sulfonamide]"
76,,"NC(=O)c1cncc(-c2nnc(NCc3ccccn3)c3c(-c4ccccc4)cccc23)c1 [Example 5, 5-(5-Phenyl-4-(pyridin-2-ylmethylamino)phthalazin-1-yl)nicotinamide]"
83.5,,"NC(=O)c1cncc(-c2nnc(NCc3ccccc3)c3c(-c4ccccc4)cccc23)c1 [Example 23, 5-(4-(Benzyl-amino)-5-phenylphthalazin-1-yl)nicotinamide]"
,84,"CC(Nc1nnc(-c2cncc(S(N)(=O)=O)c2)c2cccc(-c3ccccc3)c12)c1ccccn1 (centres unmarked) [Example 34, 5-(5-Phenyl-4-((1-(pyridin-2-yl)ethyl)amino)phthalazin-1-yl)pyridine-3-sulfonamide]"
94.9,,"NS(=O)(=O)c1cncc(-c2nnc(NCc3cccc(C(F)(F)F)c3)c3c(-c4ccccc4)cccc23)c1 [Example 38, 5-(5-Phenyl-4-((3-(trifluoromethyl)benzyl)amino)phthalazin-1-yl) pyridine-3-sulfonamide]"
41.5,,"NS(=O)(=O)c1cncc(-c2nnc(NCc3ccccc3)c3c(-c4ccc(F)cc4)cccc23)c1 [Example 28, 5-(4-(Benzylamino)-5-(4-fluorophenyl)phthalazin-1-yl)pyridine-3-sulfonamide]"
87.1,,"Nc1cncc(-c2nnc(NCc3ccccn3)c3c(-c4ccccc4)cccc23)c1 [Example 9, 4-(5-Aminopyridin-3-yl)-8-phenyl-N-(pyridin-2-ylmethyl) phthalazin-1-amine]"
72.5,,"COc1ccccc1CNc1nnc(-c2cncc(S(N)(=O)=O)c2)c2cccc(-c3ccccc3)c12 [Example 19, 5-(4-((2-Methoxy-benzyl)amino)-5-phenylphthalazin-1-yl)pyridine-3-sulfonamide]"
71.1,,"CC(Nc1nnc(-c2cncc(S(N)(=O)=O)c2)c2cccc(-c3ccccc3)c12)c1ccccn1 (centres unmarked) [Example 33, 5-(5-Phenyl-4-((1-(pyridin-2-yl)ethyl)amino)phthalazin-1-yl)pyridine-3-sulfonamide]"
79.5,,"NS(=O)(=O)c1cncc(-c2nnc(NCc3ccccn3)c3c(-c4ccccc4)cccc23)c1 [Example 1, 5-(5-Phenyl-4-(pyridin-2-ylmethylamino)phthalazin-1-yl)pyridine-3-sulfonamide]"
51.1,,"NC(=O)Nc1cncc(-c2nnc(NCc3ccccc3)c3c(-c4ccccc4)cccc23)c1 [Example 10, 1-(5-(4-(Benzylamino)-5-phenylphthalazin-1-yl)pyridin-3-yl)urea]"
91.1,,"NS(=O)(=O)c1cncc(-c2nnc(NCc3c(F)cccc3F)c3c(-c4ccccc4)cccc23)c1 [Example 36, 5-(4-((2,6-Difluorobenzyl)amino)-5-phenylphthalazin-1-yl)pyridine-3-sulfonamide]"
86.8,,"C[C@H](Nc1nnc(-c2cncc(S(N)(=O)=O)c2)c2cccc(-c3ccccc3)c12)c1ccccc1 [Example 43, (S)-5-(5-Phenyl-4-((1-phenylethyl)amino)phthalazin-1-yl)pyridine-3-sulfonamide]"
87.4,,"NS(=O)(=O)c1cncc(-c2nnc(NCc3ccccc3F)c3c(-c4ccccc4)cccc23)c1 [Example 31, 5-(4-((2-Fluorobenzyl)amino)-5-phenylphthalazin-1-yl)pyridine-3-sulfonamide]"
77.3,,"CS(=O)(=O)Nc1cncc(-c2nnc(NCc3ccccc3)c3c(-c4ccccc4)cccc23)c1 [Example 3, N-(5-(4-(Benzylamino)-5-phenylphthalazin-1-yl)pyridin-3-yl)methanesulfonamide]"
90.2,,"NS(=O)(=O)c1cncc(-c2nnc(NCc3cccc(OC(F)(F)F)c3)c3c(-c4ccccc4)cccc23)c1 [Example 40, 5-(5-Phenyl-4-((3-(trifluoromethoxy)benzyl)amino)phthalazin-1-yl)pyridine-3-sulfonamide]"
53.2,,"NS(=O)(=O)c1cncc(-c2nnc(NCc3cccc(F)c3)c3c(-c4ccccc4)cccc23)c1 [Example 32, 5-(4-((3-Fluorobenzyl)amino)-5-phenylphthalazin-1-yl)pyridine-3-sulfonamide]"
78.4,,"NS(=O)(=O)c1cncc(-c2nnc(NCc3cc(Cl)cc(Cl)c3)c3c(-c4ccccc4)cccc23)c1 [Example 39, 5-(4-((3,5-Dichlorobenzyl)amino)-5-phenylphthalazin-1-yl)pyridine-3-sulfonamide]"
86.3,,"CC(C)(Nc1nnc(-c2cncc(S(N)(=O)=O)c2)c2cccc(-c3ccccc3)c12)c1ccccn1 [Example 35, 5-(5-Phenyl-4-((2-(pyridin-2-yl)propan-2-yl)amino)phthalazin-1-yl)pyridine-3-sulfonamide]"
